# Conditions: buffer; pH 7.4; 200.0 µM
row,Compound,solubility kinetic [µg/mL]
1,O=C(Nc1ccc(Cl)cc1)N1CCOC12CCCCC2,> 44.2
2,Cc1ccccc1C(=O)Nc1nc2c(C)csc2c(=O)s1,< 0.3
3,O=C(Nc1ccn([C@H]2CC[C@@H](CO)O2)c(=O)n1)c1ccccc1,> 47.3
4,COc1ccc(C(=O)NCC2(c3ccccc3)CCCC2)c(OC)c1,3.8
5,O=C(O)/C(=C\c1ccco1)NC(=O)c1ccco1,> 37.1
6,O=C(NCCc1ccccc1)C1(S(=O)(=O)c2ccc(Cl)cc2)CC1,33.9
7,COc1ccc(C(=O)CC(=O)C(=O)Nc2ccccc2OC)cc1,16.2
8,CCOC(=O)CSc1nc2ccccc2c(=O)n1CC(C)C,4.2
9,O=C(Nc1ccc(F)cc1F)NC1CCCc2ccccc21 (centres undefined),0.3
10,On1c(-c2ccccc2)nc2ncccc21,> 31.7
11,O=C(NCc1ccc(-n2cccc2)cc1)c1cccc(F)c1,1.7
12,COc1cccc(/C(N)=N/OC(=O)Cc2ccccc2[N+](=O)[O-])c1,31.7
13,O=C(Cc1ccc([N+](=O)[O-])cc1)Nc1cccnc1,> 38.6
14,NC(=Nc1ccc(Br)cc1)c1ccccc1,> 41.3
15,CC(=O)N1CCN(c2ccc([N+](=O)[O-])c(NCc3cccnc3)c2)CC1,> 53.3
16,O=C(NCc1ccco1)/C(=C/c1ccc(Cl)cc1)NC(=O)c1ccco1,4
17,Cc1c(C(=O)Oc2cccc3cccnc23)cccc1[N+](=O)[O-],7.9
18,COc1ccc(/C=C2\Oc3cc(OC(=O)N4CCOCC4)ccc3C2=O)cc1,< 0.8
19,COc1ccc(C(C)=O)cc1COC(=O)c1cccnc1Cl,5.7
20,Cn1cccc1C(=O)OCC(=O)Nc1ccc2c(c1)OCO2,17.4

row,Compound,solubility kinetic [µg/mL]
1,CC(C)NC(=O)N1CCN(c2ccncc2S(=O)(=O)N2CCCCC2)CC1,> 59.3
2,COc1ccccc1OCc1csc(N)n1,> 35.4
3,Cl.NCCSSCCN,31.6
4,CC(C)OCCCNC(=O)Cc1ccc(F)cc1,> 38
5,CCNc1c(NC(=O)c2cccs2)c(=O)oc2ccccc12,4.5
6,Cc1ccc(NC(=O)CN2CCCCCC2)cc1[N+](=O)[O-],1.2
7,CCOc1cccc(OCCCCn2cnc3ccccc3c2=O)c1,3.4
8,CC(=O)c1ccc(S(=O)(=O)NC2CC2)cc1,26.1
9,O=C(Cc1ccc(Cl)cc1)Nc1cccnc1,23.3
10,CN1C(=O)c2ccc(C(=O)Nc3ccccc3O)cc2C1=O,13.1
11,N#C/C(=C\c1ccccn1)c1ccccn1,> 31.1
12,O=C(Cc1csc(-c2ccccc2)n1)NCc1ccco1,39.1
13,CCCCc1ccc(NC(=O)C2CCCC2)cc1,1.9
14,O=C(CCS(=O)(=O)c1ccccc1)OCc1ccc([N+](=O)[O-])cc1,32
15,COc1ccc(CN(C)C(=O)COC(=O)c2cnc(Cl)c(Cl)c2)cc1,53.1
16,Cc1ccc(OC(=O)c2cccnc2)cc1,22.5
17,CC(CCN1CCN(c2ccc(F)cc2)CC1)c1ccccc1 (centres undefined),19.6
18,O=C(c1ccc(S(=O)(=O)NCc2ccco2)cc1)N1CCN(c2ccccc2)CC1,9.1
19,COc1ccc(NC(=O)C2CCCN(S(C)(=O)=O)C2)cc1Cl (centres undefined),8.4
20,CCCn1c(SCC(=O)N2CC(=O)Nc3ccccc32)n[nH]c1=O,> 52.1

row,Compound,solubility kinetic [µg/mL]
1,CCN(CC(=O)N1CCOCC1)S(=O)(=O)c1ccc(F)cc1,41.2
2,CC(C)Cn1cc(Cl)c(=O)n(CC(C)C)c1=O,> 38.8
3,O=C(COc1ccccc1[N+](=O)[O-])Nc1ccc2c(c1)OCO2,1.7
4,Cc1ccccc1/C=C/C(=O)N1CCOCC1,> 34.7
5,CC1CN(C(=O)CSc2nc(N)cc(N)n2)CC(C)O1 (centres undefined),> 44.6
6,O=S(=O)(Nc1cc(S(=O)(=O)N2CCOCC2)ccc1Cl)c1ccccc1,> 62.5
7,COc1ccc(CC(=O)Nc2ccccc2-c2ccccc2)cc1OC,43.9
8,Cc1c(C(=O)c2ccccc2)c2ccccn2c1CCc1ccccn1,3.7
9,COc1ccc(OC)c(-n2c(SCC(=O)NCC3CCCO3)nc3ccccc3c2=O)c1 (centres undefined),> 68.3
10,COc1cccc(/C=c2\s/c(=C\C(=O)C(C)(C)C)[nH]c2=O)c1,2.1
11,Cl.Nc1cnn(Cc2ccc(F)cc2)c1,> 34.2
12,O=C(NCC(=O)N1CC=C(c2ccccc2)CC1)c1ccc(F)cc1,9
13,c1ccc(CN2CCN(Cc3ccc4ccccc4c3)CC2)cc1,23.4
14,O=C(Nc1ccc2oc(=O)ccc2c1)c1ccc(-c2cccc([N+](=O)[O-])c2)o1,3.5
15,Cc1cccc(-n2c(-c3ccccc3)nc3ccccc3c2=O)n1,> 47
16,COc1cc2c(cc1OC)C(CCc1ccccc1)=NCC2,42.6
17,COc1ccccc1CNC(=O)COC(=O)c1cc2ccccc2o1,3.8
18,Cc1ccc(C(=O)OCC(=O)NC2CCCC2)cc1,22.5
19,CCOC(=O)CSc1[nH]c2cc(OC)ccc2c1[N+](=O)[O-],29.3

# From PubChem BioAssay AID1996
